Assay results reported in patent publication US9278163B2, “Implantable polymeric device for sustained release of dopamine agonist” (Titan Pharmaceuticals, Inc., priority 2003, dated 2016).
Counter-ions that a name gives are not always drawn.

Test system: MPTP-lesioned, L-DOPA-naïve cynomolgus monkeys
Test: In vivo evaluation of implants vs pulsatile subcutaneous injections ("ON" status, dyskinesia)

time to development of dyskinesias (daily subcutaneous injections, 0.2 mg/kg, range 7-10): 8.3 days
Compound: CN1CCc2cccc3c2[C@H]1Cc1ccc(O)c(O)c1-3 [apomorphine, Apomorphine HCl]
minimally-effective dose to achieve "ON" status (daily subcutaneous injection): 0.2 mg/kg
development of dyskinesia (duration of treatment up to six months for implants, daily injections 0.2 mg/kg): all animals in the pulsatile injection group developed dyskinesias
duration of "ON" state after each administration (pulsatile daily subcutaneous injections, 0.2 mg/kg): approximately 90 minutes
